Patent US12600709B2, “Nonpeptide somatostatin type 5 receptor agonists and uses thereof” (Crinetics Pharmaceuticals, Inc., priority 2019, dated 2026)
Like-named read-outs stand apart in the source and are kept apart here.

Experiments:
[1] = molecular target: T1, human somatostatin receptor subtype 2 (Homo sapiens, UniProt P30874); experiment: cAMP assay for SST2R (inhibition of cAMP in CHO-K1 cells); type: cell-based; details: Table B; inhibition of cAMP via human SST2 receptor; read-out: SST2 potency
T1 construct: expressed in transfected cells
T1 sequence (P30874 whole entry): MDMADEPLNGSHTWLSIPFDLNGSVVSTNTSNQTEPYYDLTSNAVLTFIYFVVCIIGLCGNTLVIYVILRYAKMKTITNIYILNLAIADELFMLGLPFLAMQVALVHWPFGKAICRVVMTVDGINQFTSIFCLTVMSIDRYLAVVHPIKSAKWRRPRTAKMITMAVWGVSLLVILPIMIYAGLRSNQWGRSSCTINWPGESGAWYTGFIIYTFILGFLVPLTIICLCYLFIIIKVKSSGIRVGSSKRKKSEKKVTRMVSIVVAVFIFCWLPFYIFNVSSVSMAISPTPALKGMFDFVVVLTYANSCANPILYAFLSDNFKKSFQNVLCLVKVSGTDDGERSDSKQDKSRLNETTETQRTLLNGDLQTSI
How it was run: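 CHO-K1 cells stably expressing human SSTR2, plated 4 days prior, treated 20 min at 37° C with 1.6 μM NKH477 plus compound dilutions in HBSS/HEPES pH 7.4/0.1% BSA/0.2 mM IBMX. Lysate cAMP measured by HTRF against standard curve; EC50 from concentration-response.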

[2] = molecular target: T2, human somatostatin receptor subtype 5 (Homo sapiens, UniProt P35346); experiment: cAMP assay for SST5R (inhibition of cAMP in CHO-K1 cells); type: cell-based; details: for EC50: inhibition of cAMP via human SST5 receptor, read-out: SST5 potency; for Fold selectivity for SST5 vs SST2: class symbols, SST5 receptor over SST2 receptor
T2 construct: expressed in transfected cells
T2 sequence (P35346 whole entry): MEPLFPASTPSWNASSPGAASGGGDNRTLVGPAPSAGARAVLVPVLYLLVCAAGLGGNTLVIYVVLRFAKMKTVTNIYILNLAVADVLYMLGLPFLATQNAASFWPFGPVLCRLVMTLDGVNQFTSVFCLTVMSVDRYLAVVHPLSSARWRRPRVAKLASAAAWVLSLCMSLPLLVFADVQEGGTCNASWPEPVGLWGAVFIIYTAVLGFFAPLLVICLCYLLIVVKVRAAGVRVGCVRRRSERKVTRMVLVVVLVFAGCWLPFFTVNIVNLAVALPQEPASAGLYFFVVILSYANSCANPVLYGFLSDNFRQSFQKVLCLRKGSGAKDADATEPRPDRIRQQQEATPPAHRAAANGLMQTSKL
How it was run: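 CHO-K1 cells stably expressing human SSTR5 were treated 20 min at 37 °C with compounds plus 1.6 μM NKH477 in HBSS, 0.5 mM HEPES pH 7.4, 0.1% BSA, 0.2 mM IBMX. Lysate cAMP measured by HTRF against a standard curve; EC50 from cAMP-versus-concentration plots.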

Row | Compound | EC50 [1] [nM] | EC50 ([2]; Table A) [nM] | Fold selectivity for SST5 vs SST2 ([2]; Table B) | EC50 ([2]; Table B) [nM]
1 | CCC(CC)CNC(=O)c1cncc(-c2cc(F)cc(F)c2)c1N1CC[C@](C)(N)C1 [1-58, 4-[(3S)-3-amino-3-methylpyrrolidin-1-yl]-5-(3,5-difluorophenyl)-N-(2-ethylbutyl)pyridine-3-carboxamide] | 100 to 1000 | < 10 | +++ (+++=>500) | < 10
2 | Cc1cc(C)cc(NC(=O)c2cncc(-c3cc(C)cc(C)c3)c2N2CC[C@H](N)C2)c1 [1-1, 4-[(3S)-3-aminopyrrolidin-1-yl]-N,5-bis(3,5-dimethylphenyl)pyridine-3-carboxamide] | 10 to 100 | < 10 | ++ (++=100 to 499) | < 10
3 | Cc1cccc2[nH]c(-c3cncc(C(=O)N4CC[C@H]5CCCC54)c3N3CC[C@](C)(N)C3)nc12 (stereo partly drawn) [2-37, (3S)-1-{3-[(3aR)-octahydrocyclopenta[b]pyrrole-1-carbonyl]-5-(4-methyl-1H-1,3-benzodiazol-2-yl)pyridin-4-yl}-3-methylpyrrolidin-3-amine] | 100 to 1000 | < 10 | ++ (++=100 to 499) | < 10
4 | C[C@H](NC(=O)c1cnc(C#N)c(-c2cccc(OC(F)F)c2)c1N1CC[C@](C)(N)C1)C1CC1 [1-120, 4-[(3S)-3-amino-3-methylpyrrolidin-1-yl]-6-cyano-N-[(1S)-1-cyclopropylethyl]-5-[3-(difluoromethoxy)phenyl]pyridine-3-carboxamide] | 10 to 100 | < 10 | +++ (+++=>500) | < 10
5 | COc1ncc(C(=O)N[C@@H](C)C(F)(F)F)c(N2CC[C@](C)(N)C2)c1-c1ccc2ncn(C)c2c1 [1-182, 4-[(3S)-3-amino-3-methylpyrrolidin-1-yl]-6-methoxy-5-(1-methyl-1H-1,3-benzodiazol-6-yl)-N-[(2S)-1,1,1-trifluoropropan-2-yl]pyridine-3-carboxamide] | > 1000 | < 10 | +++ (+++=>500) | < 10
6 | Cc1cccc2[nH]c(-c3cncc(C(=O)NCC(F)(F)F)c3N3CC[C@](C)(N)C3)nc12 [2-7, 4-[(3S)-3-amino-3-methylpyrrolidin-1-yl]-5-(4-methyl-1H-1,3-benzodiazol-2-yl)-N-(2,2,2-trifluoroethyl)pyridine-3-carboxamide] | 100 to 1000 | < 10 | ++ (++=100 to 499) | < 10
7 | CCC1(NC(=O)c2cncc(-c3cc(C)cc(F)c3)c2N2CC[C@](C)(N)C2)CCC1 [1-19, 4-[(3S)-3-amino-3-methylpyrrolidin-1-yl]-N-(1-ethylcyclobutyl)-5-(3-fluoro-5-methylphenyl)pyridine-3-carboxamide] | 100 to 1000 | < 10 | ++ (++=100 to 499) | < 10
8 | C[C@H](NC(=O)c1cnc(C#N)c(-c2cc(F)cc(F)c2)c1N1CC[C@](C)(N)C1)C1CC1 [1-77, 4-[(3S)-3-amino-3-methylpyrrolidin-1-yl]-6-cyano-N-[(1S)-1-cyclopropylethyl]-5-(3,5-difluorophenyl)pyridine-3-carboxamide] | 10 to 100 | < 10 | +++ (+++=>500) | < 10
9 | Cc1cc(C)cc(NC(=O)c2cncc(-c3ccnc(C)c3)c2N2CC[C@](C)(N)C2)c1 [1-6, 4-[(3S)-3-amino-3-methylpyrrolidin-1-yl]-N-(3,5-dimethylphenyl)-2′-methyl-[3,4′-bipyridine]-5-carboxamide] | 10 to 100 | < 10 | ++ (++=100 to 499) | < 10
10 | C[C@]1(N)CCN(c2c(C(=O)NC3CCCCC3)cncc2-c2cc(F)cc(F)c2)C1 [1-112, 4-[(3S)-3-amino-3-methylpyrrolidin-1-yl]-N-cyclohexyl-5-(3,5-difluorophenyl)pyridine-3-carboxamide] | 100 to 1000 | < 10 | +++ (+++=>500) | < 10
